From patent US11596692B1 (Incyte Corporation, priority 2018, dated 2023) come the findings set out here.

The subject of this assay is IRF3. In words: IRF3 activation assay in THP-1 Dual cells. The following applies: Homo sapiens, read-out: THP1 IRF3 EC50. The class given is cell-based. On the procedure:
THP-1 Dual Cells (Invivogen) were maintained in RPMI1640 medium with addition of 10% FBS, 100 μg/ml zeocin, 10 μg/ml blasticidin. Cells were added in a 96-well flat bottom assay plate at 100,000 per well in 100 μL complete RPMI medium. Test compounds were prepared by serial dilution in complete RPMI medium and 100 μL test compounds were transferred to each corresponding well. The assay plate was incubated at 37° C., 5% CO2 for 24 hours. After the overnight incubation, 20 μL of the culture supernatants were collected, followed by addition of 180 μL of QUANTI-Blue (Invivogen) to assess IRF3 activity. The amount of IRF3 activation was assessed by reading the absorbance at 620-655 nm with a microplate reader 2 hours later. The culture supernatant from the untreated THP-1 cells was used as the negative control. EC50 determination was performed by fitting the curve of percent control activity versus the log of the compound concentration using the GraphPad Prism 6.0 software.

pEC50: −log10 of the molar value. Read-outs that look alike come from different tables or passages of the source.

As usually defined, the pEC50 is the negative decadic logarithm of the EC50, by convention in mol/L. For `CCn1nc(C)cc1C(=O)Nc1nc2cc(C(N)=O)cc(O)c2n1C/C=C/Cn1c2nc(-c3cc(C)nn3CC)ncc2c2cc(C(N)=O)cc(OCCCOC)c21` [Example S28, (E)-9-(4-(5-carbamoyl-2-(1-ethyl-3-methyl-1H-pyrazole-5-carboxamido)-7-hydroxy-1H-benzo[d]imidazol-1-yl)but-2-en-1-yl)-2-(1-ethyl-3-methyl-1H-pyrazol-5-yl)-8-(3-methoxypropoxy)-9H-pyrimido[4,5-b]indole-6-carboxamide], the pEC50 is, setting by setting: (THP-1, Table 4A) not below 7.00; (THP-1, Table 4B) more than 6.70; (THP-1, Table 4C) not below 7.30.

Turning to `CCn1nc(C)cc1C(=O)Nc1nc2cc(C(N)=O)cc(OC)c2n1C/C=C/Cn1c(NC(=O)c2cc(C)nn2CC)nc2cc(C(N)=O)cc(OCCCNC(=O)CCN)c21` [Example S32, (E)-7-(3-(3-aminopropanamido)propoxy)-1-(4-(5-carbamoyl-2-(1-ethyl-3-methyl-1H-pyrazole-5-carboxamido)-7-methoxy-1H-benzo[d]imidazol-1-yl)but-2-en-1-yl)-2-(1-ethyl-3-methyl-1H-pyrazole-5-carboxamido)-1H-benzo [d]imidazole-5-carboxamide], the pEC50 (THP-1, Table 4A) was not below 7.00.

For `CCn1nc(C)cc1C(=O)Nc1nc2cc(C(N)=O)cc(OCCCO)c2n1C/C=C/Cn1c2nc(-c3cc(C)nn3CC)ncc2c2cc(C(N)=O)cc(OCCCNC(=O)OCCC(=O)O)c21` [Example S54, (E)-3-(3-(6-carbamoyl-9-(4-(5-carbamoyl-2-(1-ethyl-3-methyl-1H-pyrazole-5-carboxamido)-7-(3-hydroxypropoxy)-1H-benzo[d]imidazol-1-yl)but-2-enyl)-2-(1-ethyl-3-methyl-1H-pyrazol-5-yl)-9H-pyrimido[4,5-b]indol-8-yloxy)propylcarbamoyloxy)propanoic acid], the pEC50 (THP-1, Table 4C) was not below 7.30.

Regarding `CCn1nc(C)cc1C(=O)Nc1nc2cc(C(N)=O)cc(C)c2n1C/C=C/Cn1c2ccc(C(N)=O)cc2c2cnc(-c3cc(C(F)(F)F)nn3CC)nc21` [Example S9, (E)-9-(4-(5-carbamoyl-2-(1-ethyl-3-methyl-1H-pyrazole-5-carboxamido)-7-methyl-1H-benzo[d]imidazol-1-yl)but-2-enyl)-2-(1-ethyl-3-(trifluoromethyl)-1H-pyrazol-5-yl)-9H-pyrimido[4,5-b]indole-6-carboxamide], the negative-log EC50 (pEC50) reads like this: (THP-1, Table 4A) 6.30 to 7.00; (THP-1, Table 4B) more than 6.00; (THP-1, Table 4C) 6.30 to 6.70.

Take `CCn1nc(C)cc1C(=O)Nc1nc2cc(C(N)=O)cc(C)c2n1C/C=C/Cn1c2ccc(C(N)=O)cc2c2cnc(-c3cc(C)nn3CC)c(F)c21` [Example S23, (E)-5-(4-(5-carbamoyl-2-(1-ethyl-3-methyl-1H-pyrazole-5-carboxamido)-7-methyl-1H-benzo[d]imidazol-1-yl)but-2-en-1-yl)-3-(1-ethyl-3-methyl-1H-pyrazol-5-yl)-4-fluoro-5H-pyrido[4,3-b]indole-8-carboxamide]: the pEC50 is 6.30 to 7.00 (THP-1, Table 4A); more than 6.70 (THP-1, Table 4B); 6.70 to 7.30 (THP-1, Table 4C).

For `CCn1nc(C)cc1C(=O)Nc1nc2cc(C(N)=O)cc(OC)c2n1C/C=C/Cn1c2nc(-c3cc(C)nn3CC)ncc2c2cc(C(N)=O)cc(OCCCNC(=O)OCCC(=O)O)c21` [Example S52, (E)-3-(3-(6-carbamoyl-9-(4-(5-carbamoyl-2-(1-ethyl-3-methyl-1H-pyrazole-5-carboxamido)-7-methoxy-1H-benzo[d]imidazol-1-yl)but-2-enyl)-2-(1-ethyl-3-methyl-1H-pyrazol-5-yl)-9H-pyrimido[4,5-b]indol-8-yloxy)propylcarbamoyloxy)propanoic acid], for the setting “THP-1, Table 4C”, the pEC50 is not below 7.30.

Take `CCn1nc(C)cc1C(=O)Nc1nc2cc(C(N)=O)cc(C)c2n1C/C=C/Cn1c2nc(-c3cc(C)nn3CC)ncc2c2cc(C(N)=O)cc(OC)c21` [Example S10, (E)-9-(4-(5-carbamoyl-2-(1-ethyl-3-methyl-1H-pyrazole-5-carboxamido)-7-methyl-1H-benzo[d]imidazol-1-yl)but-2-enyl)-2-(1-ethyl-3-methyl-1H-pyrazol-5-yl)-8-methoxy-9H-pyrimido[4,5-b]indole-6-carboxamide]: the pEC50 is, setting by setting: (THP-1, Table 4A) not below 7.00; (THP-1, Table 4B) more than 6.70; (THP-1, Table 4C) not below 7.30.

Take `CCn1nc(C)cc1C(=O)Nc1nc2cc(C(N)=O)cc(OCCCN3CCN(C)CC3)c2n1C/C=C/Cn1c2nc(-c3cc(C)nn3CC)ncc2c2cc(C(N)=O)cc(OCCCOC)c21` [Example S36, (E)-9-(4-(5-carbamoyl-2-(1-ethyl-3-methyl-1H-pyrazole-5-carboxamido)-7-(3-(4-methylpiperazin-1-yl)propoxy)-1H-benzo[d]imidazol-1-yl)but-2-en-1-yl)-2-(1-ethyl-3-methyl-1H-pyrazol-5-yl)-8-(3-methoxypropoxy)-9H-pyrimido[4,5-b]indole-6-carboxamide]: for the setting “THP-1, Table 4C”, the pEC50 was 6.70 to 7.30.

As to `CCn1nc(C)cc1C(=O)Nc1nc2cc(C(N)=O)c3ccoc3c2n1C/C=C/Cn1c2nc(-c3cc(C)nn3CC)ncc2c2cc(C(N)=O)cc(OC)c21` [Example S67, (E)-1-(4-(6-carbamoyl-2-(1-ethyl-3-methyl-1H-pyrazol-5-yl)-8-methoxy-9H-pyrimido[4,5-b]indol-9-yl)but-2-en-1-yl)-2-(1-ethyl-3-methyl-1H-pyrazole-5-carboxamido)-1H-benzofuro[6,7-d]imidazole-5-carboxamide], the pEC50 (THP-1, Table 4A) is not below 7.00.

Turning to `CCn1nc(C)cc1C(=O)Nc1nc2cc(C(N)=O)cc(C)c2n1C/C=C/Cn1c2nc(-c3cc(C)nn3CC)ncc2c2cc(C(N)=O)cc(OCCCN3CCOCC3)c21` [Example S11, (E)-9-(4-(5-carbamoyl-2-(1-ethyl-3-methyl-1H-pyrazole-5-carboxamido)-7-methyl-1H-benzo[d]imidazol-1-yl)but-2-enyl)-2-(1-ethyl-3-methyl-1H-pyrazol-5-yl)-8-(3-morpholinopropoxy)-9H-pyrimido[4,5-b]indole-6-carboxamide], the pEC50 is not below 7.00 (THP-1, Table 4A); more than 6.70 (THP-1, Table 4B); not below 7.30 (THP-1, Table 4C).

On to `CCc1nn(C)cc1-c1ncc2c3cc(C(N)=O)ccc3n(C/C=C/Cn3c(NC(=O)c4cc(C)nn4CC)nc4cc(C(N)=O)cc(C)c43)c2n1` [Example S8, (E)-9-(4-(5-carbamoyl-2-(1-ethyl-3-methyl-1H-pyrazole-5-carboxamido)-7-methyl-1H-benzo[d]imidazol-1-yl)but-2-enyl)-2-(3-ethyl-1-methyl-1H-pyrazol-4-yl)-9H-pyrimido[4,5-b]indole-6-carboxamide], for which the pEC50 reads like this: (THP-1, Table 4A) 6.00 to 6.30; (THP-1, Table 4B) more than 6.00; (THP-1, Table 4C) 6.00 to 6.30.

Regarding `CCn1nc(C)cc1C(=O)Nc1nc2cc(C(N)=O)cc(OCCCO)c2n1C/C=C/Cn1c2nc(-c3cc(C)nn3CC)ncc2c2cc(C(N)=O)cc(OCCCOC)c21` [Example S22, (E)-9-(4-(5-carbamoyl-2-(1-ethyl-3-methyl-1H-pyrazole-5-carboxamido)-7-(3-hydroxypropoxy)-1H-benzo[d]imidazol-1-yl)but-2-en-1-yl)-2-(1-ethyl-3-methyl-1H-pyrazol-5-yl)-8-(3-methoxypropoxy)-9H-pyrimido[4,5-b]indole-6-carboxamide], the pEC50 by setting is: (THP-1, Table 4A) not below 7.00; (THP-1, Table 4B) more than 6.70; (THP-1, Table 4C) not below 7.30.

Consider `CCn1nc(C)cc1C(=O)Nc1nc2cc(C(N)=O)cc(C)c2n1C/C=C/Cn1c2ccc(C(N)=O)cc2c2cc(F)c(-c3cc(C)nn3CC)nc21` [Example S24, (E)-9-(4-(5-carbamoyl-2-(1-ethyl-3-methyl-1H-pyrazole-5-carboxamido)-7-methyl-1H-benzo[d]imidazol-1-yl)but-2-en-1-yl)-2-(1-ethyl-3-methyl-1H-pyrazol-5-yl)-3-fluoro-9H-pyrido[2,3-b]indole-6-carboxamide], for which the pEC50 (THP-1, Table 4A) was not below 7.00; the pEC50 (THP-1, Table 4B) is more than 6.70; the pEC50 (THP-1, Table 4C) is not below 7.30.

For `CCn1nc(C)cc1C(=O)Nc1nc2cc(C(N)=O)cc(OC)c2n1C/C=C/Cn1c2nc(-c3cc(C)nn3CC)ncc2c2cc(C(N)=O)cc(OCCC3CCN(C(=O)OCC(=O)O)CC3)c21` [Example S61], the pEC50 (THP-1, Table 4C) was 6.70 to 7.30.

In the case of `CCn1nc(C)cc1C(=O)Nc1nc2cc(C(N)=O)cc(OCCCOC(=O)c3cc(C)nn3CC)c2n1C/C=C/Cn1c2nc(-c3cc(C)nn3CC)ncc2c2cc(C(N)=O)cc(OCCCOC)c21` [Example S21, (E)-3-((5-carbamoyl-1-(4-(6-carbamoyl-2-(1-ethyl-3-methyl-1H-pyrazol-5-yl)-8-(3-methoxypropoxy)-9H-pyrimido[4,5-b]indol-9-yl)but-2-en-1-yl)-2-(1-ethyl-3-methyl-1H-pyrazole-5-carboxamido)-1H-benzo[d]imidazol-7-yl)oxy)propyl 1-ethyl-3-methyl-1H-pyrazole-5-carboxylate], the pEC50 was not below 7.00 (THP-1, Table 4A); more than 6.70 (THP-1, Table 4B); not below 7.30 (THP-1, Table 4C).

As to `CCn1nc(C)cc1C(=O)Nc1nc2cc(C(N)=O)cc(OCCCNC(=O)[C@H](CC(=O)O)NC(=O)[C@H](CC(=O)O)NC(=O)[C@H](CCCNC(=N)N)NC(=O)[C@@H](N)CC(=O)O)c2n1C/C=C/Cn1c2nc(-c3cc(C)nn3CC)ncc2c2cc(C(N)=O)cc(OCCCOC)c21` [Example S42], where the note is “THP-1, Table 4C”, the pEC50 was 6.30 to 6.70.

As for `CCn1nc(C)cc1C(=O)Nc1nc2cc(C(N)=O)cc(C)c2n1C/C=C/Cn1c(NC(=O)c2cc(C)nn2CC)nc2cc(C(N)=O)c3ccoc3c21` [Example S31, (E)-1-(4-(5-carbamoyl-2-(1-ethyl-3-methyl-1H-pyrazole-5-carboxamido)-7-methyl-1H-benzo[d]imidazol-1-yl)but-2-en-1-yl)-2-(1-ethyl-3-methyl-1H-pyrazole-5-carboxamido)-1H-benzofuro[6,7-d]imidazole-5-carboxamide], the pEC50 (THP-1, Table 4A) was not below 7.00.
